Measurements: US20090227575A1, “7H-PYRROLO[2,3-H]QUINAZOLINE COMPOUNDS, THEIR USE AS mTOR KINASE AND PI3 KINASE INHIBITORS, AND THEIR [sequence]” (Wyeth, priority 2008, published 2009)
Where two headings read alike, the source gives them in different places.

Key:
human SMG-1 (hSMG-1) = human SMG-1 (hSMG-1) (Homo sapiens, UniProt Q96Q15); assay: hSMG-1 kinase assay (DELFIA); type: biochemical; settings: read-out: hSMG1 IC50
Human mTOR = Human mTOR (Homo sapiens, UniProt P42345); assay: mTOR kinase assay (DELFIA format, purified enzyme); type: biochemical; parameters: FLAG

Chain of human SMG-1 (hSMG-1) (Q96Q15 whole entry): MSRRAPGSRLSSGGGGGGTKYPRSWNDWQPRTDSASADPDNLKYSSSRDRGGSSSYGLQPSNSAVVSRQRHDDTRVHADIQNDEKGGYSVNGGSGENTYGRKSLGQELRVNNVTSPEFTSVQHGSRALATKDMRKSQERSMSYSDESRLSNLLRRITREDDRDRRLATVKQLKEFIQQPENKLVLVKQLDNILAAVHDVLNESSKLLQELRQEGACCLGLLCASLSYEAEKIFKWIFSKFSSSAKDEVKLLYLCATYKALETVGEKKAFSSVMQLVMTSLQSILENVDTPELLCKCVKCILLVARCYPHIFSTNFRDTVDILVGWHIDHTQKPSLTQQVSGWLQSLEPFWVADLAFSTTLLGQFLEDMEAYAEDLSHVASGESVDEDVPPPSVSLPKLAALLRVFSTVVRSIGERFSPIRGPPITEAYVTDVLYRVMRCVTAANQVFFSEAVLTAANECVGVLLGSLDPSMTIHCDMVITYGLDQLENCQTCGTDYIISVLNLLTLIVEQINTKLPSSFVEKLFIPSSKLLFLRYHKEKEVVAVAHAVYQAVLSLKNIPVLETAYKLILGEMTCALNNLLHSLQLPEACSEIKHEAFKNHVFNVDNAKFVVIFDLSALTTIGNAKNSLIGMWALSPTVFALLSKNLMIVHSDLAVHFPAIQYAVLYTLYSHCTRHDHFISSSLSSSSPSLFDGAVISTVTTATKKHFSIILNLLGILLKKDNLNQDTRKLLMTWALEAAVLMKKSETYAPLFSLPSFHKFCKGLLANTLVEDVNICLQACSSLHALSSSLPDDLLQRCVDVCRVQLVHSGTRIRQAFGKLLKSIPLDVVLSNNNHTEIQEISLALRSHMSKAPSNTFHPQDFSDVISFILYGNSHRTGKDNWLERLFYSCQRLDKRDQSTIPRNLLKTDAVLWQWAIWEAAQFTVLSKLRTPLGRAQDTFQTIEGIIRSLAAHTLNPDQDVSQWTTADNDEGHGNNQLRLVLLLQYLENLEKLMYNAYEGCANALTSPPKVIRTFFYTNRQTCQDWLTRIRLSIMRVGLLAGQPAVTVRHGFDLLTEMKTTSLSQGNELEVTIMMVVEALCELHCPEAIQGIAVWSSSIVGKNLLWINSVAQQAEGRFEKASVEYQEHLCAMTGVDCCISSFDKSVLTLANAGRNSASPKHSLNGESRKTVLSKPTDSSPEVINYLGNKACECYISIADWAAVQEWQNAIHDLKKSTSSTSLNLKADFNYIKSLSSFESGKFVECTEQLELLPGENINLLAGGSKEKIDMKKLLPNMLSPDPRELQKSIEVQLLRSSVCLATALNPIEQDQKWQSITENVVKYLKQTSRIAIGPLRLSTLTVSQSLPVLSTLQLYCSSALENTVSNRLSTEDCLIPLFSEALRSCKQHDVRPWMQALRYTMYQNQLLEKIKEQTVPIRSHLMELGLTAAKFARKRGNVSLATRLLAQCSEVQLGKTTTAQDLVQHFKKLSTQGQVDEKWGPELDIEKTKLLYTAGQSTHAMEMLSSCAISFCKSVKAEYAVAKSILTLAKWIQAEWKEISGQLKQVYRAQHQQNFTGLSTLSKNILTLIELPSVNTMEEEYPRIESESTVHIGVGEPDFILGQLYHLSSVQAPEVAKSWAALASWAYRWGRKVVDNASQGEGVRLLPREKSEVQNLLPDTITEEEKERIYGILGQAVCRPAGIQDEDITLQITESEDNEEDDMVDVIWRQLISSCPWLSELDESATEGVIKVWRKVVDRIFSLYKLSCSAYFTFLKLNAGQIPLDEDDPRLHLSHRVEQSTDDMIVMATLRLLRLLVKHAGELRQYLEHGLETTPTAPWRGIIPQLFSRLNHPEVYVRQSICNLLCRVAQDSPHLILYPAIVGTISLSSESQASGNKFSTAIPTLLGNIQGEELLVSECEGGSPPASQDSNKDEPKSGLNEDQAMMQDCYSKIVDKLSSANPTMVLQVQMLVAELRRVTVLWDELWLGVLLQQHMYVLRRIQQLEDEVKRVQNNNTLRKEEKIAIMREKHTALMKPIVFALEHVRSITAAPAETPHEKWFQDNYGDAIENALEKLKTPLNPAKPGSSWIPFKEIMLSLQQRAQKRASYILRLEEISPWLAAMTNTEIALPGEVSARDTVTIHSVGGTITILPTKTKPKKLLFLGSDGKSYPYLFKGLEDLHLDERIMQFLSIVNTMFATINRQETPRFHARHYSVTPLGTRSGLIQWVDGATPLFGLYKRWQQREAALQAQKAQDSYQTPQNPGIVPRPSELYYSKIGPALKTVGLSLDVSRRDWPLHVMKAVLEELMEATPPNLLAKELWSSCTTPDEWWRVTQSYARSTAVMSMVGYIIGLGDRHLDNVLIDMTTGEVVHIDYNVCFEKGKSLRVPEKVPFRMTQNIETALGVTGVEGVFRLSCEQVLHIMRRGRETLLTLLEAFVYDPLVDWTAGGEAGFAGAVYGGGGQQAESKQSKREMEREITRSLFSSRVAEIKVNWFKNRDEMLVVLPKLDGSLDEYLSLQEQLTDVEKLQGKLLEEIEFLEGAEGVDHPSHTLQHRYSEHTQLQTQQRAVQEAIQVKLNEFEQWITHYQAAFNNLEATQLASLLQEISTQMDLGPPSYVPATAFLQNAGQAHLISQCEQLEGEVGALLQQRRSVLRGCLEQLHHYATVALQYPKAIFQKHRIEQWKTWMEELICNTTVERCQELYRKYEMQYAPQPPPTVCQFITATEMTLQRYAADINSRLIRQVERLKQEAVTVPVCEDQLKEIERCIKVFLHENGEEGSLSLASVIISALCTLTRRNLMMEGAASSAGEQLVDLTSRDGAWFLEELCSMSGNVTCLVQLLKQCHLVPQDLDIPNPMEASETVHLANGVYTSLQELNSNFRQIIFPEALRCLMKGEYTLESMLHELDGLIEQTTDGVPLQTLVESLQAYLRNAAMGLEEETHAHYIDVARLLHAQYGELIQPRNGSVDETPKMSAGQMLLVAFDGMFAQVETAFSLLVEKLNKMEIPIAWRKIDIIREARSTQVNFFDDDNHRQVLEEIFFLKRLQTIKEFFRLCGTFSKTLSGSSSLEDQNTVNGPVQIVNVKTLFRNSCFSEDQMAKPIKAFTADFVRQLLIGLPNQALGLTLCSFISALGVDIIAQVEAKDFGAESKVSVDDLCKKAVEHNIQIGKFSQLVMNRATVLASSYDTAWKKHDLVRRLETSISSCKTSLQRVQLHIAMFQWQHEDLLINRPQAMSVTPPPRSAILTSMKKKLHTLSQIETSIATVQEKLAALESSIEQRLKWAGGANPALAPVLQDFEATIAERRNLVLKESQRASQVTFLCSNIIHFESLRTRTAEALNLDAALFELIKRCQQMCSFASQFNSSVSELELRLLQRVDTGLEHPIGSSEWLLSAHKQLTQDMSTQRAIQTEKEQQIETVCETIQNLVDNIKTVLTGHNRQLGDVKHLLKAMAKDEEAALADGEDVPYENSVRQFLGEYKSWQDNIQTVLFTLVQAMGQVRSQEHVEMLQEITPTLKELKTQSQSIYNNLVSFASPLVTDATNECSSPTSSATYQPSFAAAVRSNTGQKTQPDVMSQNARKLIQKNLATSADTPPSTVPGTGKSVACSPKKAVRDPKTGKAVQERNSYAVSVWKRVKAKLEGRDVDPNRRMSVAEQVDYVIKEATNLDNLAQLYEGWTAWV

SMILES | IC50 (human SMG-1 (hSMG-1)) | IC50 (Human mTOR; read-out: TOR Kinase IC50) | IC50 (Human mTOR)
Cn1ccc2c3nc(-c4ccc(NC(=O)NC5CCC5)cc4)nc(N4CCOCC4)c3ccc21 [Example 106, 1-cyclobutyl-3-[4-(7-methyl-4-morpholin-4-yl-7H-pyrrolo[2,3-h]quinazolin-2-yl)phenyl]urea] | 16.5 µM | 1.5 µM | –
CC(=O)c1cccc(NC(=O)Nc2ccc(-c3nc(N4CCOCC4)c4ccc5c(ccn5C)c4n3)cc2)c1 [Example 114, 1-(3-acetylphenyl)-3-[4-(7-methyl-4-morpholin-4-yl-7H-pyrrolo[2,3-h]quinazolin-2-yl)phenyl]urea] | 10.5 µM | – | 5.55 µM
CCC(=O)Nc1ccc(-c2nc(N3CCOCC3)c3ccc4c(ccn4S(C)(=O)=O)c3n2)cc1 [Example 91, N-{4-[7-(methylsulfonyl)-4-morpholin-4-yl-7H-pyrrolo[2,3-h]quinazolin-2-yl]phenyl}propanamide] | 6.1 µM | – | –
Cc1noc(C)c1NC(=O)Nc1ccc(-c2nc(N3CCOCC3)c3ccc4c(ccn4C)c3n2)cc1 [Example 116, 1-(3,5-dimethylisoxazol-4-yl)-3-[4-(7-methyl-4-morpholin-4-yl-7H-pyrrolo[2,3-h]quinazolin-2-yl)phenyl]urea] | > 20 µM | 1.27 µM | –
CS(=O)(=O)n1ccc2c3nc(-c4ccc(NC(=O)Nc5ccccc5)cc4)nc(N4CCOCC4)c3ccc21 [Example 84, 1-{4-[7-(methylsulfonyl)-4-morpholin-4-yl-7H-pyrrolo[2,3-h]quinazolin-2-yl]phenyl}-3-phenylurea] | 0.475 µM | – | –
CC(=O)Nc1ccc(-c2nc(N3CCOCC3)c3ccc4c(ccn4CCN(C)C)c3n2)cc1 [Example 112, N-(4-{7-[2-(dimethylamino)ethyl]-4-morpholin-4-yl-7H-pyrrolo[2,3-h]quinazolin-2-yl}phenyl)acetamide] | > 20 µM | 2.8 µM | –
COC(=O)Nc1ccc(-c2nc(N3CCOCC3)c3ccc4c(ccn4S(C)(=O)=O)c3n2)cc1 [Example 90, methyl {4-[7-(methylsulfonyl)-4-morpholin-4-yl-7H-pyrrolo[2,3-h]quinazolin-2-yl]phenyl}carbamate] | 5.6 µM | – | –
Cn1ccc2c3nc(-c4ccc(NC(=O)NCCc5ccncc5)cc4)nc(N4CCOCC4)c3ccc21 [Example 120, 1-[4-(7-methyl-4-morpholin-4-yl-7H-pyrrolo[2,3-h]quinazolin-2-yl)phenyl]-3-(2-pyridin-4-ylethyl)urea] | 3.3 µM | 0.625 µM | –
Cn1ccc2c3nc(-c4cccc(NC(=O)C5CC5)c4)nc(N4CCOCC4)c3ccc21 [Example 125, N-[3-(7-methyl-4-morpholin-4-yl-7H-pyrrolo[2,3-h]quinazolin-2-yl)phenyl]cyclopropanecarboxamide] | > 20 µM | 1.3 µM | –
CN(C)CCn1ccc2c3nc(-c4ccc(NC(=O)Nc5ccccc5)cc4)nc(N4CCOCC4)c3ccc21 [Example 95, 1-(4-{7-[2-(dimethylamino)ethyl]-4-morpholin-4-yl-7H-pyrrolo[2,3-h]quinazolin-2-yl}phenyl)-3-phenylurea] | 1.8 µM | 0.05 µM | –
Cn1ccc2c3nc(-c4ccc(NC(=O)NCC5CCCO5)cc4)nc(N4CCOCC4)c3ccc21 (stereo not shown) [Example 102, 1-[4-(7-methyl-4-morpholin-4-yl-7H-pyrrolo[2,3-h]quinazolin-2-yl)phenyl]-3-(tetrahydrofuran-2-ylmethyl)urea] | > 17 µM | 1.5 µM | –
CCCC(=O)Nc1cccc(-c2nc(N3CCOCC3)c3ccc4c(ccn4C)c3n2)c1 [Example 126, N-[3-(7-methyl-4-morpholin-4-yl-7H-pyrrolo[2,3-h]quinazolin-2-yl)phenyl]butanamide] | > 20 µM | 1.9 µM | –
Cn1ccc2c3nc(-c4cccc(NC(=O)Nc5cccnc5)c4)nc(N4CCOCC4)c3ccc21 [Example 123, 1-[3-(7-methyl-4-morpholin-4-yl-7H-pyrrolo[2,3-h]quinazolin-2-yl)phenyl]-3-pyridin-3-ylurea] | 5.5 µM | 2.55 µM | –
CC(=O)c1ccc(NC(=O)Nc2ccc(-c3nc(N4CCOCC4)c4ccc5c(ccn5C)c4n3)cc2)cc1 [Example 115, 1-(4-acetylphenyl)-3-[4-(7-methyl-4-morpholin-4-yl-7H-pyrrolo[2,3-h]quinazolin-2-yl)phenyl]urea] | 4.25 µM | 0.47 µM | –
Cn1ccc2c3nc(-c4ccc(NC(=O)NCCF)cc4)nc(N4CCOCC4)c3ccc21 [Example 118, 1-(2-fluoroethyl)-3-[4-(7-methyl-4-morpholin-4-yl-7H-pyrrolo[2,3-h]quinazolin-2-yl)phenyl]urea] | 15 µM | 0.625 µM | –
Cn1ccc2c3nc(-c4ccc(NC(=O)NC5CCS(=O)(=O)C5)cc4)nc(N4CCOCC4)c3ccc21 (stereo not shown) [Example 117, 1-(1,1-dioxidotetrahydrothiophen-3-yl)-3-[4-(7-methyl-4-morpholin-4-yl-7H-pyrrolo[2,3-h]quinazolin-2-yl)phenyl]urea] | > 20 µM | 0.6 µM | –
CC(=O)Nc1ccc(-c2nc(N3CCOCC3)c3ccc4c(ccn4S(C)(=O)=O)c3n2)cc1 [Example 92, N-{4-[7-(methylsulfonyl)-4-morpholin-4-yl-7H-pyrrolo[2,3-h]quinazolin-2-yl]phenyl}acetamide] | 5.25 µM | – | –

SMILES | IC50 (human SMG-1 (hSMG-1)) | IC50 (Human mTOR; read-out: TOR Kinase IC50) | IC50 (Human mTOR)
CCCC(=O)Nc1ccc(-c2nc(N3CCOCC3)c3ccc4c(ccn4S(C)(=O)=O)c3n2)cc1 [Example 88, N-{4-[7-(methylsulfonyl)-4-morpholin-4-yl-7H-pyrrolo[2,3-h]quinazolin-2-yl]phenyl}butanamide] | > 20 µM | – | –
CS(=O)(=O)n1ccc2c3nc(-c4ccc(NC(=O)C5CC5)cc4)nc(N4CCOCC4)c3ccc21 [Example 87, N-{4-[7-(methylsulfonyl)-4-morpholin-4-yl-7H-pyrrolo[2,3-h]quinazolin-2-yl]phenyl}cyclopropanecarboxamide] | 5.6 µM | – | –
CCCNC(=O)Nc1cccc(-c2nc(N3CCOCC3)c3ccc4c(ccn4C)c3n2)c1 [Example 127, 1-[3-(7-methyl-4-morpholin-4-yl-7H-pyrrolo[2,3-h]quinazolin-2-yl)phenyl]-3-propylurea] | 15.5 µM | 1.5 µM | –
CCCOC(=O)Nc1ccc(-c2nc(N3CCOCC3)c3ccc4c(ccn4S(C)(=O)=O)c3n2)cc1 [Example 109, propyl {4-[7-(methylsulfonyl)-4-morpholin-4-yl-7H-pyrrolo[2,3-h]quinazolin-2-yl]phenyl}carbamate] | > 20 µM | 2.05 µM | –
CCOC(=O)Nc1ccc(-c2nc(N3CCOCC3)c3ccc4c(ccn4S(C)(=O)=O)c3n2)cc1 [Example 86, ethyl {4-[7-(methylsulfonyl)-4-morpholin-4-yl-7H-pyrrolo[2,3-h]quinazolin-2-yl]phenyl}carbamate] | 15.5 µM | – | –
CC(C)NC(=O)Nc1ccc(-c2nc(N3CCOCC3)c3ccc4c(ccn4C)c3n2)cc1 [Example 99, 1-(1-methylethyl)-3-[4-(7-methyl-4-morpholin-4-yl-7H-pyrrolo[2,3-h]quinazolin-2-yl)phenyl]urea] | 14.5 µM | 0.215 µM | –
Cn1ccc2c3nc(-c4cccc(NC(=O)Nc5ccncc5)c4)nc(N4CCOCC4)c3ccc21 [Example 122, 1-[3-(7-methyl-4-morpholin-4-yl-7H-pyrrolo[2,3-h]quinazolin-2-yl)phenyl]-3-pyridin-4-ylurea] | 6.5 µM | – | –
Cn1ccc2c3nc(-c4ccc(NC(=O)NCC(F)(F)F)cc4)nc(N4CCOCC4)c3ccc21 [Example 119, 1-[4-(7-methyl-4-morpholin-4-yl-7H-pyrrolo[2,3-h]quinazolin-2-yl)phenyl]-3-(2,2,2-trifluoroethyl)urea] | 6.5 µM | 1.26 µM | –
CCNC(=O)Nc1ccc(-c2nc(N3CCOCC3)c3ccc4c(ccn4CCN(C)C)c3n2)cc1 [Example 94, 1-(4-{7-[2-(dimethylamino)ethyl]-4-morpholin-4-yl-7H-pyrrolo[2,3-h]quinazolin-2-yl}phenyl)-3-ethylurea] | 2 µM | – | –
Cn1ccc2c3nc(-c4ccc(NC(=O)NCC5CC5)cc4)nc(N4CCOCC4)c3ccc21 [Example 100, 1-(cyclopropylmethyl)-3-[4-(7-methyl-4-morpholin-4-yl-7H-pyrrolo[2,3-h]quinazolin-2-yl)phenyl]urea] | 16 µM | 0.5 µM | –
Cn1ccc2c3nc(-c4ccc(NC(=O)NC5CCCCC5)cc4)nc(N4CCOCC4)c3ccc21 [Example 108, 1-cyclohexyl-3-[4-(7-methyl-4-morpholin-4-yl-7H-pyrrolo[2,3-h]quinazolin-2-yl)phenyl]urea] | > 20 µM | 7.25 µM | –
CCOC(=O)Nc1cccc(-c2nc(N3CCOCC3)c3ccc4c(ccn4C)c3n2)c1 [Example 124, ethyl [3-(7-methyl-4-morpholin-4-yl-7H-pyrrolo[2,3-h]quinazolin-2-yl)phenyl]carbamate] | > 20 µM | 1.9 µM | –
CCOC(=O)Nc1ccc(-c2nc(N3CCOCC3)c3ccc4c(ccn4CCN(C)C)c3n2)cc1 [Example 93, ethyl (4-{7-[2-(dimethylamino)ethyl]-4-morpholin-4-yl-7H-pyrrolo[2,3-h]quinazolin-2-yl}phenyl)carbamate] | > 20 µM | – | –
COC(=O)Nc1ccc(-c2nc(N3CCOCC3)c3ccc4c(ccn4CCN(C)C)c3n2)cc1 [Example 98, methyl (4-{7-[2-(dimethylamino)ethyl]-4-morpholin-4-yl-7H-pyrrolo[2,3-h]quinazolin-2-yl}phenyl)carbamate] | > 20 µM | 2 µM | –
Cn1ccc2c3nc(-c4ccc(NC(=O)NCCCN5CCCC5)cc4)nc(N4CCOCC4)c3ccc21 [Example 104] | > 20 µM | 2.4 µM | –
CN(C)CCn1ccc2c3nc(-c4ccc(NC(=O)C5CC5)cc4)nc(N4CCOCC4)c3ccc21 [Example 96, N-(4-{7-[2-(dimethylamino)ethyl]-4-morpholin-4-yl-7H-pyrrolo[2,3-h]quinazolin-2-yl}phenyl)cyclopropanecarboxamide] | > 20 µM | 5.25 µM | –
CCNC(=O)Nc1cccc(-c2nc(N3CCOCC3)c3ccc4c(ccn4C)c3n2)c1 [Example 128, 1-ethyl-3-[3-(7-methyl-4-morpholin-4-yl-7H-pyrrolo[2,3-h]quinazolin-2-yl)phenyl]urea] | > 20 µM | 1.8 µM | –
